# Source: patent US12203144B2, “Analytes' detection using regulated in vitro transcription” (Northwestern University, priority 2018, dated 2025)
# Tests used:
# MphR = MphR regulated in vitro transcription of 3WJdB; format: biochemical; conditions: FIG. 24
# Excerpt: Similarly, we tested the orthogonality of the TetR, OtrR, CtcS, and MphR with their respective ligands (FIG. 17). In the absence of the ligands or inducers, there was a strong repression of transcription by the ATFs as expected. Only the tetracycline antibiotics tested were able to cause an allosteric conformational change in TetR, OtrR, and CtcS and restore fluorescence signal equivalent to micromolar amounts of soluble FITC, confirming the results presented in FIG. 10A. Similarly, MphR was responsive to macrolide antibiotics, but not to any tetracycline antibiotics tested.
# CsoR = biological target: T1, CsoR (Bacillus subtilis, UniProt O32222); assay: CsoR regulated in vitro transcription of 3WJdB (copper sensor); format: biochemical; conditions: for reactivity of the copper sensor against metals: FIG. 25A
# T1 construct: 6xHis; made in house; host or cells: E. coli Rosetta 2(DE3)pLysS
# T1 sequence (O32222 1-101): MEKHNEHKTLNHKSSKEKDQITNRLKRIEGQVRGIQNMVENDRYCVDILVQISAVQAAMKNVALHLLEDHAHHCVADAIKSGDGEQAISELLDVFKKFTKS
# Excerpt: (§1) Next, we sought to tune the sensitivity of the copper sensor to meet the EPA regulated limit of copper in drinking water (1.3 ppm). Without any tuning, the sensor detects 0.3 ppm of copper and above (FIG. 26a). To desensitize the sensor to respond near the EPA regulated limit of copper, we reasoned that excess CsoR could be added to the reactions to act as a copper chelator. […] To further implement this strategy of tuning the amount of transcription factors to shift the sensitivity of a sensor, we determined if the lead sensor can be sensitized by decreasing the amount of CadC dimer. When the concentration was decreased from 1.5 μM to 0.5 μM of CadC, we were able to shift the dose response curve to be more sensitive in order to detect tens of ppb of lead (FIG. 26b).
# SAR2349 = SAR2349 (Staphylococcus aureus, UniProt Q6GEG9); conditions: FIG. 24
# Protocol: In Vitro Transcription. DFHBI-1T was purchased from either Lucerna or Tocris Bioscience and resuspended in DMSO at 40 mM. 45 nmol of DFHBI-1T was used in each transcription reaction involving the 3WJdB aptamer. Data from FIG. 1 was generated using a HiScribe T7 Quick High Yield RNA Synthesis Kit from New England BioLabs following the manufacturer's protocol and using 1 μg of template DNA (˜5.2 pmol). All other T7 RNA polymerase transcriptions contained T7 transcription buffer (40 mM Tris-HCl pH 8.0, 20 mM NaCl, 10 mM DTT, 8 mM MgCl2, 2 mM spermidine), 8 mM NTPs, and 2 μL T7 RNA polymerase. Amount of template, inducer, and transcription factor are noted below each figure. T3 and SP6 RNA polymerase were purchased from New England BioLabs, and transcriptions using those polymerases were performed according to the manufacturers protocol. All transcriptions were performed at 37° C. and polymerase was added immediately before measurement.
# Reactions were monitored in real time by measuring on a BioTek Synergy H1 plate reader set to incubate at 37° C. For the 3WJdB output, an excitation wavelength of 472 nm and emission wavelength of 507 nm was used with measurements every 3 minutes. For the InvadeR system, excitation and emission wavelengths were set at 495 nm and 520 nm respectively and measurements were taken every minute.
# AdcR = biological target: T2, AdcR (Streptococcus pneumoniae serotype 2, UniProt Q04I02); assay: adcO-regulated KB2 kleptamer circuit with AdcR; format: biochemical; conditions: unregulated 3WJdB template and adcO regulated KB2 template, FIG. 23
# T2 construct: Giedroc Lab (Indiana University Bloomington), gift
# Excerpt: ATF ligand-mediated transcriptional repression can be inverted to ligand-mediated activation with RNA genetic circuitry. We next tested the kleptamer system with an ATF that is known to bind to its operator site in the presence of its cognate ligand and therefore cause ligand-mediated repression. AdcR is a MarR-family ATF and known to regulate genes encoding a high-affinity ABC uptake system for zinc and cell-surface zinc-binding pneumococcal histidine triad proteins.^36 Unlike the ATFs we tested previously, apo-AdcR is unbound to its operator site. Upon binding Zn(II), AdcR undergoes a conformational change that results in binding to the operator site. We placed an operator site recognized by AdcR (adcO) upstream of the KB2 kleptamer so that when zinc is present, the transcription of the KB2 kleptamer is repressed by the AdcR-zinc complex and the fluorescence-activating 3WJdB aptamer is produced.
# TetR [1] = biological target: T3, TetR (Escherichia coli, UniProt P04483); assay: TetR regulated in vitro transcription of 3WJdB with T3 or SP6 RNAP; format: biochemical; conditions: unoptimized
# T3 construct: 6xHis; made in house; host or cells: E. coli Rosetta 2(DE3)pLysS
# Excerpt: RIViTS are modular with respect to RNA polymerase. T7 RNA polymerase is a single-subunit RNA polymerase from the T7 bacteriophage. It is closely related to the T3 and SP6 bacteriophages and their RNA polymerases are homologous. We reasoned that we could swap the T7-specific promoter from the TetR regulated in vitro transcription of 3WJdB for an SP6 or T3-specific promoter, and maintain the ability to repress and induce transcription by using the appropriate RNAP. […] We suspect that further optimization of the transcription reaction conditions (e.g. buffer composition) will substantially improve the fold-change between the repressed and derepressed states.
# TetR [2] = biological target: T3, TetR; assay: TetR regulated in vitro transcription of strand-invading RNA (InvadeR), DNA output gate; format: biochemical; conditions: FIG. 9
# Excerpt: We next transcribed a strand-invading RNA (“InvadeR”) to illustrate that an alternative RNA output can also be visualized in real-time. The InvadeR system works through toehold-mediated strand displacement of a DNA output gate. The DNA output gate consists of 2 annealed and complementary strands (“reporter” and “quencher,” boxed in FIG. 3A). The reporter strand consists of 24 nucleotides and a 3′ fluorophore, while the quencher strand contains 16 complementary nucleotides and a 5′ quencher. When annealed, the two strands leave an 8-nucleotide single-stranded “toehold” region on the 5′ end of the reporter strand. Spatial proximity of the 3′ fluorophore and 5′ quencher results in fluorescence quenching (the “OFF” state). For the InvadeR system described here, we utilized a 3′ terminal single isomer derivative of fluorescein (6-FAM) and a quencher strand with a 5′ terminal Iowa Black FQ quencher. […]
# Upon transcription of the InvadeR sequence, which contains 24 nucleotides of perfect complementarity to the reporter strand, the RNA product hybridizes to the single-stranded toehold region of the DNA output gate. This initiates a strand invasion reaction that eventually displaces the quencher strand and alleviates fluorescence quenching (the “ON” state). […]
# TetR [3] = biological target: T3, TetR; assay: TetR regulated in vitro transcription of 3WJdB, derepression by ligand; format: biochemical; conditions: 200 pmol of antibiotic, T7 RNAP, FIG. 7
# Excerpt: The family of tetracycline antibiotics are known ligands of the TetR repressor—they can induce an allosteric conformational change in TetR that results in a lowered affinity for the DNA operator sequence. Importantly, TetR repression of in vitro transcription is relieved if a cognate ligand is included immediately prior to measurement and coincident with the addition of T7 RNAP. […] This included anhydrotetracyline, tetracycline, oxytetracycline, chlortetracycline, and doxycycline. […] The 2 BP spacer (“GG”) promotes efficient transcription initiation with T7 RNAP.
# Finally, to validate that the TetR regulated in vitro transcription reactions were specifically responsive to tetracycline antibiotics and that fluorescence was not due to nonspecific activity, we tested the TetR regulated in vitro transcription reaction of the 3WJdB output against macrolide antibiotics (FIG. 10A) as well as other common antibiotics used in biological research (FIG. 10B). None of the non-tetracycline antibiotics tested here is known to induce a conformational change in TetR. In all cases, strong repression of transcription was observed over the course of 2 hours except when tested against the positive control (anhydrotetracyline), or in the absence of the repressor (the unregulated reaction).
# CadC = biological target: T4, CadC (Staphylococcus aureus, UniProt P20047); assay: CadC regulated in vitro transcription of 3WJdB (lead sensor); format: biochemical; conditions: CadC dimer decreased from 1.5 μM to 0.5 μM, FIG. 26b
# T4 construct: 6xHis; made in house; host or cells: E. coli Rosetta 2(DE3)pLysS
# Excerpt: as §1
# T3 sequence (P04483 whole entry): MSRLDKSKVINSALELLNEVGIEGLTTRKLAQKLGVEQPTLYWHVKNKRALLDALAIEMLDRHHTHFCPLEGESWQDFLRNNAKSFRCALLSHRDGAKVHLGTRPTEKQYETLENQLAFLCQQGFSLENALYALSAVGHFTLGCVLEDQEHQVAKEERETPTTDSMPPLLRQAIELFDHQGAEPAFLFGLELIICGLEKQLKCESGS
# Sequence of SAR2349 (Q6GEG9 whole entry): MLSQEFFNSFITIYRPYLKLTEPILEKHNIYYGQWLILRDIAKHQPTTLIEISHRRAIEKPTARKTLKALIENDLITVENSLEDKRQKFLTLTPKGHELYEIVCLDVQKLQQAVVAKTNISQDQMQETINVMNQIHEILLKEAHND
# T2 sequence (Q04I02 whole entry): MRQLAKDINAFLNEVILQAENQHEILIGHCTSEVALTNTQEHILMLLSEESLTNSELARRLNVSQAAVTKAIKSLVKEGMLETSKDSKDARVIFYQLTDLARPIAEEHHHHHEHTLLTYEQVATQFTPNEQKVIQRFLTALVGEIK
# T4 sequence (P20047 whole entry): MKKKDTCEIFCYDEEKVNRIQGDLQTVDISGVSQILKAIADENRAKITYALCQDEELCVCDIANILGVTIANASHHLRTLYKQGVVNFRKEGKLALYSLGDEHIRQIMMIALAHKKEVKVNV
structure (smiles),measurement,setting,value
CC[C@H]1OC(=O)[C@H](C)[C@@H](O[C@H]2C[C@@](C)(OC)[C@@H](O)[C@H](C)O2)[C@H](C)[C@@H](O[C@@H]2O[C@H](C)C[C@H](N(C)C)[C@H]2O)[C@](C)(O)C[C@@H](C)C(=O)[C@H](C)[C@@H](O)[C@]1(C)O [erythromycin],signal across ligand families,MphR,strong signals from cognate ligands with minimal crosstalk
[Cu+2] [copper],sensitivity of the sensor,"CsoR; CsoR tetramer increased to 7.5 μM, FIG. 26a",1 ppm
same,signal across ligand families,CsoR; FIG. 24,strong signals from cognate ligands with minimal crosstalk
same,reactivity of the copper sensor against metals,CsoR,can respond to copper as well as zinc
same,concentration detected by the sensor,"CsoR; without any tuning, CsoR tetramer 2.5 μM, FIG. 26a",≥ 0.3 ppm
O=C(O)c1ccccc1O [salicylate],signal across ligand families,SAR2349,strong signals from cognate ligands with minimal crosstalk
[Zn+2] [zinc],fluorescence-activation on titration of ligand,AdcR,increased fluorescence-activation
same,reactivity of the copper sensor against metals,CsoR,can respond to copper as well as zinc
Cc1c2c(c(O)c3c(O)cccc13)C(=O)[C@]1(O)C(=O)C(C(N)=O)=C(O)[C@@H](N(C)C)[C@@H]1C2 [anhydrotetracycline],relief of TetR repression,"TetR [1]; SP6 RNAP, FIG. 11B",repression is partially relieved
same,relief of TetR repression,"TetR [1]; T3 RNAP, FIG. 11A",repression is partially relieved
same,derepression/induction of TetR-repressed InvadeR system,TetR [2],derepression/induction
same,"relief of TetR repression, aptamer-activated fluorescence",TetR [3],restored aptamer-activated fluorescence close to or exceeding the level of fluorescence observed
[Pb+2] [lead],concentration detected by the sensor,CadC,tens of ppb
